Test results reported in US12486294B2, “Radioisotope labeled compound for imaging or treatment of prostate cancer” (SEOUL NATIONAL UNIVERSITY R&DB FOUNDATION, priority 2019, dated 2025).

Experiments:
[1] = Stability test in human serum; type: in vitro ADME; details: 36.5° C., after 2 hours
Description: The stability test in human serum is to test the stability when it comes into contact with human serum after administration to the human body, and the stability in the body is partly tested in vitro.
In order to examine the stability of [^99mTc]Tc-15 according to the present invention in human serum, 3.7 MBq of [^99mTc]Tc-15 (100 μL) prepared in Example 3 was added to 1 mL of human serum, mixed well, and then cultured at 36.5° C. with stirring. After 2 hours, the reaction mixture was analyzed by ITLC.
In order to examine the stability of [^99mTc]Tc-16 according to the present invention in human serum, 3.7 MBq of [^99mTc]Tc-16 (100 μL) prepared in Example 4 was added to 1 mL of human serum, mixed well, and then cultured at 36.5° C. with stirring. After 2 hours, the reaction mixture was analyzed by ITLC.

[2] = tested on: PSMA-expressing 22Rv1 tumor; assay: SPECT imaging in 22Rv1 cell-transplanted mice; type: in vivo, BALB/c nude mouse
Description: Specifically, 0.1 mL of RPMI1640 culture medium containing 5×10^6 22 Rv1 cells was subcutaneously injected into the right back of a 4-week-old male BALE/c nude mouse. After 2 to 3 weeks, the present inventors confirmed that the tumor tissue had reached an appropriate size and used it in the experiment. For animal injection, [^99mTc]Tc-15 and [^99mTc]Tc-16 were each diluted in saline for injection to a concentration of 10.2 MBq/100 μL. […]

[3] = tested on: PSMA-targeted 22Rv1 tumor; assay: In vivo distribution test in cancer transplantation animals; design: species or system BALB/c male nude mice
Description: Specifically, 0.1 mL of RPMI1640 culture medium containing 5×10^6 22 Rv1 cells was subcutaneously injected into the left flank of a 4-week-old male BALB/c nude mouse. After 2 to 3 weeks, the present inventors confirmed that the tumor tissue had reached an appropriate size and used it in the experiment. For animal injection, [^99mTc]Tc-15 prepared in Example 3 and [^99mTc]Tc-16 prepared in Example 4 were each diluted in saline for injection to a concentration of 0.74 MBq/100 μL. Each of these was injected into the tail vein of the mice transplanted with cancer cells, and after 1 hour and 4 hours, cancer, blood, muscle, heart. Lung, liver, spleen, stomach, small intestine, kidney, bone, and the like were collected and their weight and radioactivity were measured.

[4] = target: PSMA (Homo sapiens, UniProt Q04609); details: 22Rv1 cells, 1 hour at 37° C., non-specific binding with 250 μM PMPA, nonlinear regression
Description: The PSMA-positive prostate cancer cell line 22Rv1 was placed in a 24-well plate at the density of 1×10^5 cells/well, followed by culture in a 37° C., 5% CO2 incubator for 24 hours. […] 0.5 mL of the diluted solution was taken and put into cultured cells and incubated in a 37° C., 5% CO2 incubator for 1 hour. After removing the culture medium, the cells were washed twice with fresh culture medium, 1 mL of 0.5% sodium dodecyl sulfate (SDS) dissolved in phosphate buffered saline was added thereto, gently shaken to dissolve, and then transferred to a 5 mL disposable plastic test tube. The radioactivity of the tube was measured using a gamma counter. […] Specific binding was obtained by subtracting non-specific binding from total binding, and a saturation curve was drawn. […] From these saturation curves, the dissociation constant, Kd, was calculated by nonlinear regression using GraphPad Prism 7 program.

[5] = 1 h Blockade, co-injection of 2-PMPA (100 μg)
[6] = 4 h Blockade, co-injection of 2-PMPA (100 μg)

Sequence of PSMA (Q04609 whole entry): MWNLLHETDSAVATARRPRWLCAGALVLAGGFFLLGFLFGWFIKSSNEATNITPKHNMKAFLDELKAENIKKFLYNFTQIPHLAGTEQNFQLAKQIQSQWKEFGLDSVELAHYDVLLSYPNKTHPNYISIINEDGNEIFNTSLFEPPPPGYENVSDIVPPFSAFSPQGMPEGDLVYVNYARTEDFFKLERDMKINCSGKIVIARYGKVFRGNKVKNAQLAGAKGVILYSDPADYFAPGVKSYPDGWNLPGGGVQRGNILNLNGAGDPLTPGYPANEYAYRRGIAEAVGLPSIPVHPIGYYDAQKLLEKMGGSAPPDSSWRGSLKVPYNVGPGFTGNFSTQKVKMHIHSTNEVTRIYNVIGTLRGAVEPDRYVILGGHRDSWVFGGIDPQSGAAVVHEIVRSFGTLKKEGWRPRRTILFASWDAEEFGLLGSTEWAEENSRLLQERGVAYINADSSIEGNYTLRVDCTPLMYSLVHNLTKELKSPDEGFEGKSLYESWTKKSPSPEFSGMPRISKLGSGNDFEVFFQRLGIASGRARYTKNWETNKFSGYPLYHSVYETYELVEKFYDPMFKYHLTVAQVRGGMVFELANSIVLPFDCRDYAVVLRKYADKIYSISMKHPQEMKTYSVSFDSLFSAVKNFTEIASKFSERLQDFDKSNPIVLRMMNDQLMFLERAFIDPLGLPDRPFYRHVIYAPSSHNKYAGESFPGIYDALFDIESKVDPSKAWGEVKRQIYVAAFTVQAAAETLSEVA

In the case of `[99Tc+].[C-]#[N+]CCC(=O)NCCCCCC(=O)NCCCCC(NC(=O)N[C@@H](CCC(=O)O)C(=O)O)C(=O)O.[C-]#[N+]CCC(=O)NCCCCCC(=O)NCCCCC(NC(=O)N[C@@H](CCC(=O)O)C(=O)O)C(=O)O.[C-]#[N+]CCC(=O)NCCCCCC(=O)NCCCCC(NC(=O)N[C@@H](CCC(=O)O)C(=O)O)C(=O)O.[C-]#[O+].[C-]#[O+].[C-]#[O+]` (stereo partly shown) [[^99mTc]Tc-15], the “stability in human serum (ITLC)” value [1] is reported as “most of them were present as [^99mTc]Tc-15 and hardly separated as ^99mTc”, the “tumor intake in SPECT image with PSMA blocked” value ([2]; MIP-1072 injected to selectively block PSMA) is reported as “tumor intake was not observed” and the “tumor intake in SPECT image” value ([2]; intravenous injection, 1 hour and 3 hours after the injection) is reported as “no clear intake was observed”. For the same compound, the “distribution observed in SPECT image” value ([2]; tail vein injection, 1 hour and 3 hours) was “not only excreted by the kidney but also ingested into the prostate cancer tissue”, the “In vivo distribution, Blood” value ([3]; 1 h) was 0.60 % ID/g and the “In vivo distribution, Bone” value ([3]; 1 h) was 0.34 % ID/g. For the same compound, the “In vivo distribution, Heart” value ([3]; 1 h) was 0.22 % ID/g, the “In vivo distribution, Intestine” value ([3]; 1 h) was 0.78 % ID/g and the “In vivo distribution, Kidney” value ([3]; 1 h) was 59.59 % ID/g. For the same compound, the “In vivo distribution, Liver” value ([3]; 1 h) was 0.94 % ID/g, the “In vivo distribution, Lung” value ([3]; 1 h) was 0.64 % ID/g and the “In vivo distribution, Muscle” value ([3]; 1 h) was 0.17 % ID/g. For the same compound, the “In vivo distribution, Spleen” value ([3]; 1 h) was 0.90 % ID/g, the “In vivo distribution, Stomach” value ([3]; 1 h) was 0.31 % ID/g and the “In vivo distribution, Tumor” value ([3]; 1 h) was 1.48 % ID/g. The Tumor/blood ([3]; 1 h) was 2.5, the Tumor/kidney ([3]; 1 h) was 0.02 and the Tumor/liver ([3]; 1 h) was 1.57. The Tumor/muscle ([3]; 1 h) was 8.5, the “In vivo distribution, Blood” value [3, 5] was 0.52 % ID/g and the “In vivo distribution, Bone” value [3, 5] was 0.26 % ID/g. For the same compound, the “In vivo distribution, Heart” value [3, 5] was 0.16 % ID/g, the “In vivo distribution, Intestine” value [3, 5] was 0.55 % ID/g and the “In vivo distribution, Kidney” value [3, 5] was 4.22 % ID/g. For the same compound, the “In vivo distribution, Liver” value [3, 5] was 0.84 % ID/g, the “In vivo distribution, Lung” value [3, 5] was 0.61 % ID/g and the “In vivo distribution, Muscle” value [3, 5] was 0.11 % ID/g. For the same compound, the “In vivo distribution, Spleen” value [3, 5] was 0.15 % ID/g, the “In vivo distribution, Stomach” value [3, 5] was 0.17 % ID/g and the “In vivo distribution, Tumor” value [3, 5] was 0.38 % ID/g. It also gave a Tumor/blood [3, 5] of 0.73, a Tumor/kidney [3, 5] of 0.09 and a Tumor/liver [3, 5] of 0.45. For the same compound, the Tumor/muscle [3, 5] was 3.5, the “In vivo distribution, Blood” value ([3]; 4 h) was 0.31 % ID/g and the “In vivo distribution, Bone” value ([3]; 4 h) was 0.16 % ID/g. The “In vivo distribution, Heart” value ([3]; 4 h) was 0.12 % ID/g, the “In vivo distribution, Intestine” value ([3]; 4 h) was 0.81 % ID/g and the “In vivo distribution, Kidney” value ([3]; 4 h) was 13.72 % ID/g. The “In vivo distribution, Liver” value ([3]; 4 h) was 0.85 % ID/g, the “In vivo distribution, Lung” value ([3]; 4 h) was 0.30 % ID/g and the “In vivo distribution, Muscle” value ([3]; 4 h) was 0.08 % ID/g. For the same compound, the “In vivo distribution, Spleen” value ([3]; 4 h) was 0.26 % ID/g, the “In vivo distribution, Stomach” value ([3]; 4 h) was 0.15 % ID/g and the “In vivo distribution, Tumor” value ([3]; 4 h) was 0.81 % ID/g. The Tumor/blood ([3]; 4 h) was 2.6, the Tumor/kidney ([3]; 4 h) was 0.06 and the Tumor/liver ([3]; 4 h) was 0.96. For the same compound, the Tumor/muscle ([3]; 4 h) was 10.4, the “In vivo distribution, Blood” value [3, 6] was 0.31 % ID/g and the “In vivo distribution, Bone” value [3, 6] was 0.20 % ID/g. For the same compound, the “In vivo distribution, Heart” value [3, 6] was 0.10 % ID/g, the “In vivo distribution, Intestine” value [3, 6] was 0.97 % ID/g and the “In vivo distribution, Kidney” value [3, 6] was 1.44 % ID/g. For the same compound, the “In vivo distribution, Liver” value [3, 6] was 0.84 % ID/g, the “In vivo distribution, Lung” value [3, 6] was 0.30 % ID/g and the “In vivo distribution, Muscle” value [3, 6] was 0.08 % ID/g. For the same compound, the “In vivo distribution, Spleen” value [3, 6] was 0.16 % ID/g, the “In vivo distribution, Stomach” value [3, 6] was 0.14 % ID/g and the “In vivo distribution, Tumor” value [3, 6] was 0.20 % ID/g. For the same compound, the Tumor/blood [3, 6] was 0.65, the Tumor/kidney [3, 6] was 0.14 and the Tumor/liver [3, 6] was 0.24. The Tumor/muscle [3, 6] was 2.71, the “intake when PSMA was blocked with PMPA” value ([3]; summary of Tables 2 and 3) was “the intake was decreased” and the “tissue with highest intake” value ([3]; summary of Tables 2 and 3) was “the highest intake in the kidney”. For the same compound, the Kd [4] was 5.5 nM.
